# Key:
# Assay in all cases: KINOMEscan kinase profiling
# Assay type in all cases: binding
# [1] = biological target: T1, PAK1 (Homo sapiens, UniProt Q13153); conditions: read-out: Percent Control
# T1 construct: purchased DiscoverX KINOMEscan (kinases); BPS Bioscience (epigenetic targets)
# Method: (§1) Kinase Selectivity Profiling
# (§2) (out of which 90 are non-mutant kinases) was performed at DiscoverRx (http://www.discoverx.com/home) using the KINOMEscan™ screening platform at a test concentration of 10 µM. Results for primary screen […]
# (§3) positive control signal) / (negative control signal – positive control signal) *100, where negative control corresponds to DMSO treatment (100%) and positive control to the signal obtained with a control competitive compound (0%). […]
# (§4) using the Hill equation. Each target was assayed in duplicate. […]
# [2] = biological target: T2, AKT1 (Homo sapiens, UniProt P31749); conditions: read-out: Percent Control
# T2 construct: purchased DiscoverX KINOMEscan (kinases); BPS Bioscience (epigenetic targets)
# Method: as §1, §2, §3, §4
# [3] = biological target: T3, CDK2 (Homo sapiens, UniProt P24941); conditions: read-out: Percent Control
# T3 construct: purchased DiscoverX KINOMEscan (kinases); BPS Bioscience (epigenetic targets)
# Method: as §1, §2, §3, §4
# [4] = biological target: T4, CDK9 (Homo sapiens, UniProt P50750); conditions: read-out: Percent Control
# T4 construct: purchased DiscoverX KINOMEscan (kinases); BPS Bioscience (epigenetic targets)
# Method: as §1, §2, §3, §4
# [5] = biological target: T5, MET (Homo sapiens, UniProt P08581); conditions: read-out: Percent Control
# T5 construct: purchased DiscoverX KINOMEscan (kinases); BPS Bioscience (epigenetic targets)
# Method: as §1, §2, §3, §4
# [6] = biological target: T6, FGFR3 (Homo sapiens, UniProt P22607); conditions: read-out: Percent Control
# T6 construct: purchased DiscoverX KINOMEscan (kinases); BPS Bioscience (epigenetic targets)
# Method: as §1, §2, §3, §4
# [7] = biological target: T7, SRPK3 (Homo sapiens, UniProt Q9UPE1); conditions: read-out: Percent Control
# T7 construct: purchased DiscoverX KINOMEscan (kinases); BPS Bioscience (epigenetic targets)
# Method: as §1, §2, §3, §4
# [8] = biological target: T8, EPHA2 (Homo sapiens, UniProt P29317); conditions: read-out: Percent Control
# T8 construct: purchased DiscoverX KINOMEscan (kinases); BPS Bioscience (epigenetic targets)
# Method: as §1, §2, §3, §4
# [9] = biological target: T9, MLK1 (Homo sapiens, UniProt P80192); conditions: read-out: Percent Control
# T9 construct: purchased DiscoverX KINOMEscan (kinases); BPS Bioscience (epigenetic targets)
# Method: as §1, §2, §3, §4
# [10] = biological target: T10, INSR (Homo sapiens, UniProt P06213); conditions: read-out: Percent Control
# T10 construct: purchased DiscoverX KINOMEscan (kinases); BPS Bioscience (epigenetic targets)
# Method: as §1, §2, §3, §4
# [11] = biological target: T11, MKNK1 (Homo sapiens, UniProt Q9BUB5); conditions: read-out: Percent Control
# T11 construct: purchased DiscoverX KINOMEscan (kinases); BPS Bioscience (epigenetic targets)
# Method: as §1, §2, §3, §4
# [12] = biological target: T12, AURKA (Homo sapiens, UniProt O14965); conditions: read-out: Percent Control
# T12 construct: purchased DiscoverX KINOMEscan (kinases); BPS Bioscience (epigenetic targets)
# Method: as §1, §2, §3, §4
# [13] = biological target: T13, PAK4 (Homo sapiens, UniProt O96013); conditions: read-out: Percent Control
# T13 construct: purchased DiscoverX KINOMEscan (kinases); BPS Bioscience (epigenetic targets)
# Method: as §1, §2, §3, §4
# [14] = biological target: T14, PLK1 (Homo sapiens, UniProt P53350); conditions: read-out: Percent Control
# T14 construct: purchased DiscoverX KINOMEscan (kinases); BPS Bioscience (epigenetic targets)
# Method: as §1, §2, §3, §4
# [15] = biological target: T15, FGFR2 (Homo sapiens, UniProt P21802); conditions: read-out: Percent Control
# T15 construct: purchased DiscoverX KINOMEscan (kinases); BPS Bioscience (epigenetic targets)
# Method: as §1, §2, §3, §4
# [16] = biological target: T16, PIM2 (Homo sapiens, UniProt Q9P1W9); conditions: read-out: Percent Control
# T16 construct: purchased DiscoverX KINOMEscan (kinases); BPS Bioscience (epigenetic targets)
# Method: as §1, §2, §3, §4
# [17] = biological target: T17, TRKA (Homo sapiens, UniProt P04629)
# T17 construct: purchased DiscoverRx (DiscoverX), KINOMEscan screening platform
# Method: as §1, §2, §3, §4
# [18] = biological target: T18, BMPR2 (Homo sapiens, UniProt Q13873); conditions: read-out: Percent Control
# T18 construct: purchased DiscoverX KINOMEscan (kinases); BPS Bioscience (epigenetic targets)
# Method: as §1, §2, §3, §4
# [19] = biological target: T19, KIT(V559D,T670I) (Homo sapiens, UniProt P10721, T670I/V559D); conditions: read-out: Percent Control
# T19 construct: purchased DiscoverX KINOMEscan (kinases); BPS Bioscience (epigenetic targets)
# Method: as §1, §2, §3, §4
# [20] = biological target: T20, PCTK1 (Homo sapiens, UniProt Q00536); conditions: read-out: Percent Control
# T20 construct: purchased DiscoverX KINOMEscan (kinases); BPS Bioscience (epigenetic targets)
# Method: as §1, §2, §3, §4
# [21] = biological target: T21, KIT(D816V) (Homo sapiens, UniProt P10721, D816V); conditions: read-out: Percent Control
# T21 construct: purchased DiscoverX KINOMEscan (kinases); BPS Bioscience (epigenetic targets)
# Method: as §1, §2, §3, §4
# [22] = biological target: T22, PLK4 (Homo sapiens, UniProt O00444); conditions: read-out: Percent Control
# T22 construct: purchased DiscoverX KINOMEscan (kinases); BPS Bioscience (epigenetic targets)
# Method: as §1, §2, §3, §4
# [23] = biological target: T23, RET (Homo sapiens, UniProt P07949); conditions: read-out: Percent Control
# T23 construct: purchased DiscoverX KINOMEscan (kinases); BPS Bioscience (epigenetic targets)
# Method: as §1, §2, §3, §4
# [24] = biological target: T24, VEGFR2 (Homo sapiens, UniProt P35968); conditions: read-out: Percent Control
# T24 construct: purchased DiscoverX KINOMEscan (kinases); BPS Bioscience (epigenetic targets)
# Method: as §1, §2, §3, §4
# [25] = biological target: T25, JNK1 (Homo sapiens, UniProt P45983); conditions: read-out: Percent Control
# T25 construct: purchased DiscoverX KINOMEscan (kinases); BPS Bioscience (epigenetic targets)
# Method: as §1, §2, §3, §4
# [26] = biological target: T26, AURKB (Homo sapiens, UniProt Q96GD4); conditions: read-out: Percent Control
# T26 construct: purchased DiscoverX KINOMEscan (kinases); BPS Bioscience (epigenetic targets)
# Method: as §1, §2, §3, §4
# [27] = biological target: T27, PIM1 (Homo sapiens, UniProt P11309); conditions: read-out: Percent Control
# T27 construct: purchased DiscoverX KINOMEscan (kinases); BPS Bioscience (epigenetic targets)
# Method: as §1, §2, §3, §4
# [28] = biological target: T28, RAF1 (Homo sapiens, UniProt P04049); conditions: read-out: Percent Control
# T28 construct: purchased DiscoverX KINOMEscan (kinases); BPS Bioscience (epigenetic targets)
# Method: as §1, §2, §3, §4
# [29] = biological target: T29, ABL1-phosphorylated (Homo sapiens, UniProt P00519); conditions: read-out: Percent Control
# T29 construct: purchased DiscoverX KINOMEscan (kinases); BPS Bioscience (epigenetic targets)
# Method: as §1, §2, §3, §4
# [30] = biological target: T30, ULK2 (Homo sapiens, UniProt Q8IYT8); conditions: read-out: Percent Control
# T30 construct: purchased DiscoverX KINOMEscan (kinases); BPS Bioscience (epigenetic targets)
# Method: as §1, §2, §3, §4
# [31] = biological target: T31, KIT (Homo sapiens, UniProt P10721); conditions: read-out: Percent Control
# T31 construct: purchased DiscoverX KINOMEscan (kinases); BPS Bioscience (epigenetic targets)
# Method: as §1, §2, §3, §4
# [32] = biological target: T32, PAK2 (Homo sapiens, UniProt Q13177); conditions: read-out: Percent Control
# T32 construct: purchased DiscoverX KINOMEscan (kinases); BPS Bioscience (epigenetic targets)
# Method: as §1, §2, §3, §4
# [33] = biological target: T33, PDPK1 (Homo sapiens, UniProt O15530); conditions: read-out: Percent Control
# T33 construct: purchased DiscoverX KINOMEscan (kinases); BPS Bioscience (epigenetic targets)
# Method: as §1, §2, §3, §4
# [34] = biological target: T34, CHEK1 (Homo sapiens, UniProt O14757); conditions: read-out: Percent Control
# T34 construct: purchased DiscoverX KINOMEscan (kinases); BPS Bioscience (epigenetic targets)
# Method: as §1, §2, §3, §4
# [35] = biological target: T35, TIE2 (Homo sapiens, UniProt Q02763); conditions: read-out: Percent Control
# T35 construct: purchased DiscoverX KINOMEscan (kinases); BPS Bioscience (epigenetic targets)
# Method: as §1, §2, §3, §4
# [36] = biological target: T36, CSNK1D (Homo sapiens, UniProt P48730); conditions: read-out: Percent Control
# T36 construct: purchased DiscoverX KINOMEscan (kinases); BPS Bioscience (epigenetic targets)
# Method: as §1, §2, §3, §4
# [37] = biological target: T37, MARK3 (Homo sapiens, UniProt P27448); conditions: read-out: Percent Control
# T37 construct: purchased DiscoverX KINOMEscan (kinases); BPS Bioscience (epigenetic targets)
# Method: as §1, §2, §3, §4
# [38] = biological target: T38, CDK7 (Homo sapiens, UniProt P50613); conditions: read-out: Percent Control
# T38 construct: purchased DiscoverX KINOMEscan (kinases); BPS Bioscience (epigenetic targets)
# Method: as §1, §2, §3, §4
# [39] = biological target: T39, AXL (Homo sapiens, UniProt P30530); conditions: read-out: Percent Control
# T39 construct: purchased DiscoverX KINOMEscan (kinases); BPS Bioscience (epigenetic targets)
# Method: as §1, §2, §3, §4
# [40] = biological target: T40, CSNK1G2 (Homo sapiens, UniProt P78368); conditions: read-out: Percent Control
# T40 construct: purchased DiscoverX KINOMEscan (kinases); BPS Bioscience (epigenetic targets)
# Method: as §1, §2, §3, §4
# [41] = biological target: T41, GSK3B (Homo sapiens, UniProt P49841); conditions: read-out: Percent Control
# T41 construct: purchased DiscoverX KINOMEscan (kinases); BPS Bioscience (epigenetic targets)
# Method: as §1, §2, §3, §4
# T17 sequence (P04629 33-796): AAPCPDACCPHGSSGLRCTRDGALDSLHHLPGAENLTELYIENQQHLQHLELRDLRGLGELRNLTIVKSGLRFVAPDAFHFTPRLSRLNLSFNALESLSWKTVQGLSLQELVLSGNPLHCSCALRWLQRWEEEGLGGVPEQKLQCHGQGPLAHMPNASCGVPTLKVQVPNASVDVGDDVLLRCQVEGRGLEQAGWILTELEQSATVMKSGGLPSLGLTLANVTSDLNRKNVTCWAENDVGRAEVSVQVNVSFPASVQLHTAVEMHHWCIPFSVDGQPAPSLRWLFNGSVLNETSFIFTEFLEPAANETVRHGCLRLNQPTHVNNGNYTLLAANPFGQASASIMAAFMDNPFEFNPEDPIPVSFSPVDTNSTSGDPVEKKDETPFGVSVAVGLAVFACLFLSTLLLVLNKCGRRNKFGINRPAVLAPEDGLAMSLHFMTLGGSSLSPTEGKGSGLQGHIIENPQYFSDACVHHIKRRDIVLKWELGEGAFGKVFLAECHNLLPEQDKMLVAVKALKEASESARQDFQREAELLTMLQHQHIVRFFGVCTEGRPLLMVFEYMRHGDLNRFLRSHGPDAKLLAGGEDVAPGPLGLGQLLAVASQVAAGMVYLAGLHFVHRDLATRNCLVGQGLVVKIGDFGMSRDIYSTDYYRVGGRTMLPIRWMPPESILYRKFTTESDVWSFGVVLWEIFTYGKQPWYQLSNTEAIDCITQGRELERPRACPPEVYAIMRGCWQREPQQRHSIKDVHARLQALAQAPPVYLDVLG
# T31 sequence (P10721 26-976): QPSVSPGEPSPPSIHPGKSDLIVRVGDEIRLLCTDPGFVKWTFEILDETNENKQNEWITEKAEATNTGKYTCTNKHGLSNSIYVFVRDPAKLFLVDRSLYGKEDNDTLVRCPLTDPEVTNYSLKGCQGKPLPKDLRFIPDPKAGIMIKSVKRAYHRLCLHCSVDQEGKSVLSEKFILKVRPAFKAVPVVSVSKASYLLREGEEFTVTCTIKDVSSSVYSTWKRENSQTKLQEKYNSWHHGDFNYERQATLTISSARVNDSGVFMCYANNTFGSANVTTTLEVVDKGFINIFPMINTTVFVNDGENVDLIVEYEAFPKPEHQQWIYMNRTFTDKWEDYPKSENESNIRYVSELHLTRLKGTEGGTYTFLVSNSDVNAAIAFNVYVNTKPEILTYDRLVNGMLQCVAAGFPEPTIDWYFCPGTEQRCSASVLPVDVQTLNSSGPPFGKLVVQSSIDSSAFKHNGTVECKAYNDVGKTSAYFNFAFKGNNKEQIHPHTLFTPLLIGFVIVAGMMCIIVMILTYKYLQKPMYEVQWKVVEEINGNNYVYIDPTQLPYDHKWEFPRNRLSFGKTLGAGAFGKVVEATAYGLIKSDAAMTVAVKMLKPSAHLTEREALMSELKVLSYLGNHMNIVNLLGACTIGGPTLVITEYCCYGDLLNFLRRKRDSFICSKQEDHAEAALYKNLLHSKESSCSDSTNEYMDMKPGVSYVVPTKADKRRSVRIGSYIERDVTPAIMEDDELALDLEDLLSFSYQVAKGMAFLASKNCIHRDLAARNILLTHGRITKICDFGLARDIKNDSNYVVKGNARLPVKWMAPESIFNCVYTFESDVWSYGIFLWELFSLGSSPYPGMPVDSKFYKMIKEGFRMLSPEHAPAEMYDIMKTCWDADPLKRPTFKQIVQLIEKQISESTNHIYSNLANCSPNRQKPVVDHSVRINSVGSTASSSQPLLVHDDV
# T19 sequence (P10721 26-976 V559D/T670I): as the sequence (P10721 26-976) above, with V534D, T645I counted along it
# T25 sequence (P45983 whole entry): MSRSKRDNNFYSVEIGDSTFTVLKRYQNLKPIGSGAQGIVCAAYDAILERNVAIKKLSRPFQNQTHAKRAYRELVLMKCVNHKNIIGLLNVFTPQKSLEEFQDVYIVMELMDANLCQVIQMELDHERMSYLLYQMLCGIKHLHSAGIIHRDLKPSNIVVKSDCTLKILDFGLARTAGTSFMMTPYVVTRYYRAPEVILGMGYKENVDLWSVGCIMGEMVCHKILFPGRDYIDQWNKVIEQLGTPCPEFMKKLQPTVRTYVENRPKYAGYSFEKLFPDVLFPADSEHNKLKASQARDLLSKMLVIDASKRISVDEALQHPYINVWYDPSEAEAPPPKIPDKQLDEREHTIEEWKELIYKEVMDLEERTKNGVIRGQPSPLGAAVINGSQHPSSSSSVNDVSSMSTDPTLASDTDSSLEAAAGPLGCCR
# T26 sequence (Q96GD4 whole entry): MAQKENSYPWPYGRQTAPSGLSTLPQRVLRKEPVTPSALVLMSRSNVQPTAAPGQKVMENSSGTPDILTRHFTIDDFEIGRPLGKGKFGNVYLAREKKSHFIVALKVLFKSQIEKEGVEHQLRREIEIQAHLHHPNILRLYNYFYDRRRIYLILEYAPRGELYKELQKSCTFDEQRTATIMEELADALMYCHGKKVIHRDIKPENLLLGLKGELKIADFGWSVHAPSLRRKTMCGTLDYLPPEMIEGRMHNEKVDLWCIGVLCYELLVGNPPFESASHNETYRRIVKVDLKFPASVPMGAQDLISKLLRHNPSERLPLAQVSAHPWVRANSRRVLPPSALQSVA
# T12 sequence (O14965 whole entry): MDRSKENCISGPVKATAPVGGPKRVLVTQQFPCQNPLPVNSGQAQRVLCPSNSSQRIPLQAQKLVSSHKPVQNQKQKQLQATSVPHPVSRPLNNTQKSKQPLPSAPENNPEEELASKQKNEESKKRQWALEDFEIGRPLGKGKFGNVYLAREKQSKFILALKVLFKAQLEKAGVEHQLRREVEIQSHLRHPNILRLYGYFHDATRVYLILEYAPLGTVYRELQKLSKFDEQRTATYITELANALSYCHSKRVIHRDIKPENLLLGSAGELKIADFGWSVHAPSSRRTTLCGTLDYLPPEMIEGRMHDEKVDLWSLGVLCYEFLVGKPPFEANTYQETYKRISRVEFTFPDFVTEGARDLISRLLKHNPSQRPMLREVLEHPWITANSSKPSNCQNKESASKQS
# T6 sequence (P22607 23-806): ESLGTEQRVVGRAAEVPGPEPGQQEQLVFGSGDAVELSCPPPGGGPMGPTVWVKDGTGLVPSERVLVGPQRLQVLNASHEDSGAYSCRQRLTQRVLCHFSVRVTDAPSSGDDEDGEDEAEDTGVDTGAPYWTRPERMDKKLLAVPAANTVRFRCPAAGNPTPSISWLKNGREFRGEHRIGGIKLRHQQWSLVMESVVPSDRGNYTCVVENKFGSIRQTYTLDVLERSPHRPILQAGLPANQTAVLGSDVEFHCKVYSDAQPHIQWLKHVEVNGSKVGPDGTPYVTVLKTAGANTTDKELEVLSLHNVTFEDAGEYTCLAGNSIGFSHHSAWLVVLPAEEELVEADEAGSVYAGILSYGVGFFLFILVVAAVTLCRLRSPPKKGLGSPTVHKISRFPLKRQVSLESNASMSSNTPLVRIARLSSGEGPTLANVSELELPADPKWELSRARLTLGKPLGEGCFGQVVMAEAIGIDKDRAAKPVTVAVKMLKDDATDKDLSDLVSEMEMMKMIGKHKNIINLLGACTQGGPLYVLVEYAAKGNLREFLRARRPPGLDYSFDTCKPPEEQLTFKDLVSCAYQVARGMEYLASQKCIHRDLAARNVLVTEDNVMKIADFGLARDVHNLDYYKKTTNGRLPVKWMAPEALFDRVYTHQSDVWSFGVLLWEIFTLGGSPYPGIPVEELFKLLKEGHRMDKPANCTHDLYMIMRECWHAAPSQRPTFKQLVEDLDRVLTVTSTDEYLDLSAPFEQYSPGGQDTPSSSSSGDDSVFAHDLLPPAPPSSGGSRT
# T16 sequence (Q9P1W9 whole entry): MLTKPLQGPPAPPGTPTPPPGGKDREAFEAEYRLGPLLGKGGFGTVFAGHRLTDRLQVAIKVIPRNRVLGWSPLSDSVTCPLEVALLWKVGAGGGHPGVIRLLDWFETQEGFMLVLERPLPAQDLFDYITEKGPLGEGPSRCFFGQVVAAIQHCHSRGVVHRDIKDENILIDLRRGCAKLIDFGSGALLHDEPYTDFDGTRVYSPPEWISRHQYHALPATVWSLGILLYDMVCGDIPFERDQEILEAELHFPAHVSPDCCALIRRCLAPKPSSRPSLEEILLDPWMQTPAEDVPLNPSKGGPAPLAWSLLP
# T18 sequence (Q13873 27-1038): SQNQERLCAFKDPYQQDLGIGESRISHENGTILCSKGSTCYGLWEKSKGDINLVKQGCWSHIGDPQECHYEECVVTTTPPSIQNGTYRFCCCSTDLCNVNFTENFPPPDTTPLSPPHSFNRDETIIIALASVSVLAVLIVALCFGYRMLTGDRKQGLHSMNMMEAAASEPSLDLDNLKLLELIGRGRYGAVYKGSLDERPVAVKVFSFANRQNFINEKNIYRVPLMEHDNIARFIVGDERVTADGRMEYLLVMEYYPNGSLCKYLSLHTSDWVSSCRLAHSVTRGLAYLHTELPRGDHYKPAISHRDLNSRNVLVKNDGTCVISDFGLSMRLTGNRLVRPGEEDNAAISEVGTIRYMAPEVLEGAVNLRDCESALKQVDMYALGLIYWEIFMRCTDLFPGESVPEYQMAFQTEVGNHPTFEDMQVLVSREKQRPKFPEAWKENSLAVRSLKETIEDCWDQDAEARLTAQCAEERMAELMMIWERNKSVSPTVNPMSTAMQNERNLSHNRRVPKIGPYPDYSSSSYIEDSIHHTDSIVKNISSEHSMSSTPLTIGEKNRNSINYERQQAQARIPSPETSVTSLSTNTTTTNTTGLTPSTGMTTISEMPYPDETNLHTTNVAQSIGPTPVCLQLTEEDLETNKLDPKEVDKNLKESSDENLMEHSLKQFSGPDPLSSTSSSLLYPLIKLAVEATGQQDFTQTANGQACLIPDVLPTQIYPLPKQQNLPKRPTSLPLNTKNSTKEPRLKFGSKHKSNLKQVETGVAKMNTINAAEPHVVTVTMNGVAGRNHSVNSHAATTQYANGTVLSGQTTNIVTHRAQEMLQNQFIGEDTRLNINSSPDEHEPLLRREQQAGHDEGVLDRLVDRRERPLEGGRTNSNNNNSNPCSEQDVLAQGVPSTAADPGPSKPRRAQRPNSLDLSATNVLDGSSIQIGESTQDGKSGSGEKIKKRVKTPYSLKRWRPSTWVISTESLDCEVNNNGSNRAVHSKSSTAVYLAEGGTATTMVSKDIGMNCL
smiles,measurement,setting,value
"COc1cc2c(NC3CCN(C)CC3)cc(-c3ccc(C)o3)nc2cc1OCCCN1CCCC1 [CM-272, 6-methoxy-2-(5-methyl-2-furyl)-N-(1-methyl-4-piperidyl)-7-(3-pyrrolidin-1-ylpropoxy)quinolin-4-amine]",remaining binding at 10 µM,[1],69%
same,remaining binding at 10 µM,[2],100%
same,remaining binding at 10 µM,[3],100%
same,remaining binding at 10 µM,[4],96%
same,remaining binding at 10 µM,[5],91%
same,remaining binding at 10 µM,[6],100%
same,remaining binding at 10 µM,[7],100%
same,remaining binding at 10 µM,[8],100%
same,remaining binding at 10 µM,[9],100%
same,remaining binding at 10 µM,[10],5.1%
same,remaining binding at 10 µM,[11],1.4%
same,remaining binding at 10 µM,[12],71%
same,remaining binding at 10 µM,[13],100%
same,remaining binding at 10 µM,[14],31%
same,remaining binding at 10 µM,[15],100%
same,remaining binding at 10 µM,[16],93%
same,remaining binding at 10 µM,"[17]; 10 µM, read-out: Percent Control",0%
same,Kd,[17]; KINOMEscan,1100 nM
same,remaining binding at 10 µM,[18],32%
same,remaining binding at 10 µM,[19],100%
same,remaining binding at 10 µM,[20],23%
same,remaining binding at 10 µM,[21],100%
same,remaining binding at 10 µM,[22],80%
same,remaining binding at 10 µM,[23],100%
same,remaining binding at 10 µM,[24],23%
same,remaining binding at 10 µM,[25],25%
same,remaining binding at 10 µM,[26],61%
same,remaining binding at 10 µM,[27],93%
same,remaining binding at 10 µM,[28],73%
same,remaining binding at 10 µM,[29],4.8%
same,remaining binding at 10 µM,[30],9.8%
same,remaining binding at 10 µM,[31],100%
same,remaining binding at 10 µM,[32],67%
same,remaining binding at 10 µM,[33],100%
same,remaining binding at 10 µM,[34],99%
same,remaining binding at 10 µM,[35],90%
same,remaining binding at 10 µM,[36],95%
same,remaining binding at 10 µM,[37],100%
same,remaining binding at 10 µM,[38],53%
same,remaining binding at 10 µM,[39],100%
same,remaining binding at 10 µM,[40],95%
same,remaining binding at 10 µM,[41],61%

# From publication PMC5458547, “Discovery of first-in-class reversible dual small molecule inhibitors against G9a and DNMTs in hematological malignancies” (Nature Communications, 2017)
